Experimental data as given in ChEMBL document CHEMBL1155392, “New adjuvants to enhance anticoagulant activity of warfarin” (Bioorg Med Chem Lett, 2010).
Activity calls are given as the source filed them. The rule behind the calls is not given here.

Key:
Rattus norvegicus [1] = assay: Potentiation of warfarin-induced anticoagulant activity in Sprague-Dawley rat assessed as change in prothrombin time at 2.5 mg/kg, po after 10 days (Rvb= 12.9+/-0.7 sec); assay type: functional
Rattus norvegicus [2] = assay: Anticoagulant activity in Sprague-Dawley rat assessed as change in factor 10 content in blood at 2.5 mg/kg, po after 4 days (reference value: 60.6%+/-3.0 %); assay type: functional
Rattus norvegicus [3] = assay: Potentiation of warfarin-induced anticoagulant activity in Sprague-Dawley rat assessed as change in factor 7 level at 2.5 mg/kg, po after 10 days (reference value: 321.3 %+/-14.7%); assay type: functional
Rattus norvegicus [4] = assay: Potentiation of warfarin-induced anticoagulant activity in Sprague-Dawley rat assessed as change in factor 10 level at 2.5 mg/kg, po after 4 days (Rvb =60.6%+/-3.0%); assay type: functional
Rattus norvegicus [5] = assay: Anticoagulant activity in Sprague-Dawley rat assessed as change in factor 10 content in blood at 0.25 mg/kg, po after 10 days (reference value: 58.1%+/-1.8 %); assay type: functional
Rattus norvegicus [6] = assay: Anticoagulant activity in orally dosed Sprague-Dawley rat; assay type: functional, organism-based
Rattus norvegicus [7] = assay: Anticoagulant activity in Sprague-Dawley rat assessed as change in factor 7 content in blood at 0.025 mg/kg, po after 10 days (reference value: 321.3%+/-14.7 %); assay type: functional
Rattus norvegicus [8] = assay: Anticoagulant activity in Sprague-Dawley rat assessed as change in prothrombin time at 2.5 mg/kg, po after 4 days ([…]); assay type: functional
Rattus norvegicus [9] = assay: Anticoagulant activity in Sprague-Dawley rat assessed as change in prothrombin time at 0.025 mg/kg, po after 10 days ([…]); assay type: functional
Rattus norvegicus [10] = assay: Anticoagulant activity in Sprague-Dawley rat assessed as change in prothrombin time at 0.25 mg/kg, po after 4 days ([…]); assay type: functional
Rattus norvegicus [11] = assay: Potentiation of warfarin-induced anticoagulant activity in Sprague-Dawley rat assessed as change in prothrombin time at 2.5 mg/kg, po after 4 days (Rvb= 12.8+/-0.5 sec); assay type: functional
Rattus norvegicus [12] = assay: Anticoagulant activity in Sprague-Dawley rat assessed as change in factor 10 content in blood at 0.025 mg/kg, po after 4 days (reference value: 60.6%+/-3.0 %); assay type: functional
Rattus norvegicus [13] = assay: Anticoagulant activity in Sprague-Dawley rat assessed as change in prothrombin time at 0.25 mg/kg, po after 10 days (Rvb=12.9+/-0.7 sec); assay type: functional
Rattus norvegicus [14] = assay: Anticoagulant activity in Sprague-Dawley rat assessed as change in factor 10 content in blood at 0.25 mg/kg, po after 4 days (reference value: 60.6%+/-3.0 %); assay type: functional
Rattus norvegicus [15] = assay: Potentiation of warfarin-induced anticoagulant activity in Sprague-Dawley rat assessed as change in factor 7 level at 2.5 mg/kg, po after 4 days (reference value: 400 %+/-33.2%); assay type: functional
Rattus norvegicus [16] = assay: Anticoagulant activity in Sprague-Dawley rat assessed as change in factor 10 content in blood at 0.025 mg/kg, po after 10 days (reference value: 58.1%+/-1.8 %); assay type: functional
Rattus norvegicus [17] = assay: Anticoagulant activity in Sprague-Dawley rat assessed as change in factor 7 content in blood at 2.5 mg/kg, po after 4 days (reference value: 400%+/-33.2%); assay type: functional
Rattus norvegicus [18] = assay: Anticoagulant activity in Sprague-Dawley rat assessed as change in prothrombin time at 2.5 mg/kg, po after 10 days (Rvb=12.9+/-0.7 sec); assay type: functional
Rattus norvegicus [19] = assay: Anticoagulant activity in Sprague-Dawley rat assessed as change in prothrombin time at 0.025 mg/kg, po after 4 days (Rvb=12.8+/-0.5 sec); assay type: functional
Rattus norvegicus [20] = assay: Potentiation of warfarin-induced anticoagulant activity in Sprague-Dawley rat assessed as change in factor 10 level at 2.5 mg/kg, po after 10 days (Rvb =58.1%+/-1.8%); assay type: functional
Rattus norvegicus [21] = organism: Rattus norvegicus; assay: Cytotoxicity in Sprague-Dawley rat; assay type: organism-based; details: in vivo
Rattus norvegicus [22] = assay: Anticoagulant activity in Sprague-Dawley rat assessed as change in factor 7 content in blood at 0.25 mg/kg, po after 10 days (reference value: 321.3%+/-14.7 %); assay type: functional
Rattus norvegicus [23] = assay: Anticoagulant activity in Sprague-Dawley rat assessed as change in factor 10 content in blood at 2.5 mg/kg, po after 10 days (reference value: 58.1%+/-1.8 %); assay type: functional
Rattus norvegicus [24] = assay: Anticoagulant activity in Sprague-Dawley rat assessed as change in factor 7 content in blood at 0.025 mg/kg, po after 4 days (reference value: 400%+/-33.2%); assay type: functional
Rattus norvegicus [25] = assay: Anticoagulant activity in Sprague-Dawley rat assessed as change in factor 7 content in blood at 0.25 mg/kg, po after 4 days (reference value: 400%+/-33.2%); assay type: functional
Rattus norvegicus [26] = assay: Anticoagulant activity in Sprague-Dawley rat assessed as reduction factor 7 content in blood at 2.5 mg/kg, po after 10 days (reference value: 321.3%+/-14.7 %); assay type: functional; parameters: scale not given: the % may be the effect or the level left

Compound | PT (Rattus norvegicus [1]) [s] | Activity (Rattus norvegicus [2]) [%] | Activity (Rattus norvegicus [3]) [%] | Activity (Rattus norvegicus [4]) [%] | Activity (Rattus norvegicus [5]) [%] | Activity (Rattus norvegicus [6]) | Activity (Rattus norvegicus [7]) [%] | PT (Rattus norvegicus [8]) [s] | PT (Rattus norvegicus [9]) [s] | PT (Rattus norvegicus [10]) [s] | PT (Rattus norvegicus [11]) [s] | Activity (Rattus norvegicus [12]) [%] | PT (Rattus norvegicus [13]) [s] | Activity (Rattus norvegicus [14]) [%] | Activity (Rattus norvegicus [15]) [%] | Activity (Rattus norvegicus [16]) [%] | Activity (Rattus norvegicus [17]) [%] | PT (Rattus norvegicus [18]) [s] | Activity (Rattus norvegicus [22]) [%] | Activity (Rattus norvegicus [25]) [%] | further results
CC(=O)Oc1c2c(c(OC(C)=O)c3ccccc13)[C@]1(C)C=C[C@]2(C)C1 | 35.4 | 64.3 | 35 | 4.8 | 61.2 | inactive | 364 | 11.8 | 11.4 | 11.6 | 40.5 | 74.5 | 11.7 | 65.3 | 20.3 | 68 | 370.8 | 11.6 | 304.7 | 351.3 | PT (Rattus norvegicus [19]): 11.2 s; Activity (Rattus norvegicus [20]): 7.7%; Activity (Rattus norvegicus [21]): Not Active; Activity (Rattus norvegicus [23]): 61%; Activity (Rattus norvegicus [24]): 346.8%; Activity (Rattus norvegicus [26]): 286.8%
CC(=O)Oc1c2c(c(OC(C)=O)c3ccccc13)[C@@]1(C)C[C@]2(C)[C@]2(C)O[C@@]21C | 108.4 | 61 | 18.4 | 58.8 | 59.8 | inactive | 350.3 | 12.7 | 11.6 | 11.6 | 12 | 73.3 | 11.6 | 61 | 264 | 64.2 | 395.5 | 11.6 | 295.2 | 334.3 | PT (Rattus norvegicus [19]): 11.4 s; Activity (Rattus norvegicus [20]): 3.6%; Activity (Rattus norvegicus [21]): Not Active; Activity (Rattus norvegicus [23]): 61%; Activity (Rattus norvegicus [24]): 366.3%; Activity (Rattus norvegicus [26]): 285.8%
CC(=O)CC(c1ccccc1)c1c(O)c2ccccc2oc1=O (stereo not drawn) [WARFARIN] |  |  |  |  | 14.9 |  |  |  |  | 37 |  |  | 24.4 | 10 |  |  |  |  | 56.2 | 29.5 | 
